Tests used:
Assay in all cases: cells
Details in all cases: Homo sapiens
EOL1 = assay type: functional, cell-based;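 also: growth inhibition of EoL-1 cells, read out by a cell viability assay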
Description: SANGER: Inhibition of human EoL-1-cell cell growth in a cell viability assay.

MN-60 = assay type: functional, cell-based;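 also: growth inhibition of the MN-60 cell line, determined with a cell viability assay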
Description: SANGER: Inhibition of human MN-60 cell growth in a cell viability assay.

OS-RC-2 = assay type: functional, cell-based;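 also: growth inhibition of human OS-RC-2 cells, measured by a cell viability assay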
Description: SANGER: Inhibition of human OS-RC-2 cell growth in a cell viability assay.

SK-N-DZ = assay type: functional, cell-based;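 also: growth inhibition of the cancer cell line, read out through a viability assay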
Description: SANGER: Inhibition of human SK-N-DZ cell growth in a cell viability assay.

TK-10 = assay type: functional, cell-based;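 also: growth inhibition of TK-10 cells, read out in a cell viability assay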
Description: SANGER: Inhibition of human TK10 cell growth in a cell viability assay.

NOMO-1 = assay type: functional, cell-based;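 also: growth inhibition of human NOMO-1 cells measured by a cell viability assay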
Description: SANGER: Inhibition of human NOMO-1 cell growth in a cell viability assay.

A3-KAW = assay type: functional, cell-based;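 also: growth inhibition of human A3-KAW cells, read out with a cell viability assay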
Description: SANGER: Inhibition of human A3-KAW cell growth in a cell viability assay.

SK-N-FI = assay type: functional, cell-based;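 also: cell viability assay measuring growth inhibition of human SK-N-FI cells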
Description: SANGER: Inhibition of human SK-N-FI cell growth in a cell viability assay.

NCI-H209 = assay type: functional, cell-based;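 also: growth inhibition of human NCI-H209 cells, measured by a cell viability assay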
Description: SANGER: Inhibition of human NCI-H209 cell growth in a cell viability assay.

MS-1 = assay type: functional, cell-based
Description: SANGER: Inhibition of human MS-1 cell growth in a cell viability assay.

KARPAS-45 = assay type: functional, cell-based;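 also: inhibition of cell line growth, read out through a viability assay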
Description: SANGER: Inhibition of human KARPAS-45 cell growth in a cell viability assay.

DMS-79 = assay type: functional, cell-based;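 also: growth inhibition measured with a cell viability assay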
Description: SANGER: Inhibition of human DMS-79 cell growth in a cell viability assay.

KURAMOCHI = assay type: functional, cell-based;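 also: growth inhibition of KURAMOCHI cells, read out with a cell viability assay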
Description: SANGER: Inhibition of human KURAMOCHI cell growth in a cell viability assay.

ML-2 = assay type: functional, cell-based;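 also: growth inhibition of ML-2 cells, measured with a cell viability readout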
Description: SANGER: Inhibition of human ML-2 cell growth in a cell viability assay.

DMS-114 = assay type: functional, cell-based
SF-539 = assay type: functional, cell-based;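 also: Read-out is a cell viability assay, with IC50 reflecting inhibition of cell growth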
Description: SANGER: Inhibition of human SF539 cell growth in a cell viability assay.

D283 Med = assay type: functional, cell-based
Description: SANGER: Inhibition of human D-283MED cell growth in a cell viability assay.

HuTu80 = assay type: functional, cell-based, HUTU-80;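 also: growth inhibition of HuTu80 human cells, determined with a cell viability readout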
Description: SANGER: Inhibition of human HUTU-80 cell growth in a cell viability assay.

KALS-1 = assay type: functional, cell-based;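 also: growth inhibition of KALS-1 cells, determined with a cell viability assay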
Description: SANGER: Inhibition of human KALS-1 cell growth in a cell viability assay.

ES5 = assay type: functional, cell-based;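 also: growth inhibition of human ES5 cells, read out by a cell viability assay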
Description: SANGER: Inhibition of human ES5 cell growth in a cell viability assay.

MSTO-211H = assay type: functional, cell-based
Description: SANGER: Inhibition of human MSTO-211H cell growth in a cell viability assay.

GOTO = assay type: functional, cell-based;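 also: growth inhibition of GOTO cells, read out by a cell viability assay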
Description: SANGER: Inhibition of human GOTO cell growth in a cell viability assay.

LB1047-RCC = assay type: functional, cell-based;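 also: inhibition of cell growth, determined with a cell viability assay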
Description: SANGER: Inhibition of human LB1047-RCC cell growth in a cell viability assay.

KNS-42 = assay type: functional, cell-based;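 also: growth inhibition of KNS-42 cells, read out with a cell viability assay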
Description: SANGER: Inhibition of human KNS-42 cell growth in a cell viability assay.

NCI-H1648 = assay type: functional, cell-based;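 also: cell viability assay measuring inhibition of NCI-H1648 cell growth, from the Sanger screening data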
Description: SANGER: Inhibition of human NCI-H1648 cell growth in a cell viability assay.

D-502MG = assay type: functional, cell-based
Description: SANGER: Inhibition of human D-502MG cell growth in a cell viability assay.

HCC1187 = assay type: functional, cell-based;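 also: growth inhibition of HCC1187 cells, read out with a cell viability assay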
Description: SANGER: Inhibition of human HCC1187 cell growth in a cell viability assay.

ONS-76 = assay type: functional, cell-based;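 also: growth inhibition of human ONS-76 cells, read out with a cell viability assay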
Description: SANGER: Inhibition of human ONS-76 cell growth in a cell viability assay.

SK-MEL-1 = assay type: functional, cell-based;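 also: growth inhibition of human SK-MEL-1 cells, read out by a cell viability assay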
Description: SANGER: Inhibition of human SK-MEL-1 cell growth in a cell viability assay.

CTB-1 = assay type: functional, cell-based
Description: SANGER: Inhibition of human CTB-1 cell growth in a cell viability assay.

DU-4475 = assay type: functional, cell-based
Description: SANGER: Inhibition of human DU-4475 cell growth in a cell viability assay.

SK-NEP-1 = assay type: functional, cell-based;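 also: growth inhibition of human SK-NEP-1 cells, read out by a cell viability assay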
Description: SANGER: Inhibition of human SK-NEP-1 cell growth in a cell viability assay.

C8166 = assay type: functional, cell-based;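 also: growth inhibition of human C8166 cells measured by a cell viability assay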
Description: SANGER: Inhibition of human C8166 cell growth in a cell viability assay.

JVM-2 = assay type: functional, cell-based;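 also: growth inhibition of JVM-2 cells determined by a cell viability assay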
Description: SANGER: Inhibition of human JVM-2 cell growth in a cell viability assay.

Calu-6 = assay type: functional, cell-based;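 also: growth of human Calu-6 cells, read out by a cell viability assay, IC50 marking inhibition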
Description: SANGER: Inhibition of human Calu-6 cell growth in a cell viability assay.

ES3 = assay type: functional, cell-based;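 also: growth inhibition of ES3 cells, read out with a cell viability assay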
Description: SANGER: Inhibition of human ES3 cell growth in a cell viability assay.

SCC-15 = assay type: functional, cell-based;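 also: growth inhibition of SCC-15 cells, read out with a cell viability assay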
Description: SANGER: Inhibition of human SCC-15 cell growth in a cell viability assay.

CTV-1 = assay type: functional, cell-based;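 also: growth inhibition of the cell line, read out with a cell viability assay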
Description: SANGER: Inhibition of human CTV-1 cell growth in a cell viability assay.

GCIY = assay type: functional, cell-based;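 also: growth inhibition of the human GCIY cell line, read out by a cell viability assay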
Description: SANGER: Inhibition of human GCIY cell growth in a cell viability assay.

JVM-3 = assay type: functional, cell-based;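 also: growth inhibition of human JVM-3 cells, read out with a cell viability assay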
Description: SANGER: Inhibition of human JVM-3 cell growth in a cell viability assay.

HCE-T = assay type: functional, cell-based;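 also: cell viability assay read-out, reporting inhibition of HCE-T cell growth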
Description: SANGER: Inhibition of human HCE-T cell growth in a cell viability assay.

KG-1 = assay type: functional, cell-based;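 also: growth inhibition of KG-1 cells, read out by a cell viability assay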
Description: SANGER: Inhibition of human KG-1 cell growth in a cell viability assay.

OMC-1 = assay type: functional, cell-based;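 also: growth inhibition of the OMC-1 cell line, measured by a cell viability assay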
Description: SANGER: Inhibition of human OMC-1 cell growth in a cell viability assay.

L-428 = assay type: functional, cell-based
Description: SANGER: Inhibition of human L-428 cell growth in a cell viability assay.

KGN = assay type: functional, cell-based;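 also: growth inhibition of KGN cells, read out with a cell viability assay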
Description: SANGER: Inhibition of human KGN cell growth in a cell viability assay.

LS-1034 = assay type: functional, cell-based
Description: SANGER: Inhibition of human LS-1034 cell growth in a cell viability assay.

KS-1 = assay type: functional, cell-based;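 also: growth inhibition of KS-1 cells, read out with a cell viability assay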
Description: SANGER: Inhibition of human KS-1 cell growth in a cell viability assay.

KLE = assay type: functional, cell-based;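 also: growth inhibition of human KLE cells, read out with a cell viability assay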
Description: SANGER: Inhibition of human KLE cell growth in a cell viability assay.

TE-11 = assay type: functional, cell-based;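 also: growth inhibition of human TE-11 cells, read out by a cell viability assay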
Description: SANGER: Inhibition of human TE-11 cell growth in a cell viability assay.

SNB-75 = assay type: functional, cell-based;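 also: cell viability assay measuring growth inhibition of human SNB-75 cells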
Description: SANGER: Inhibition of human SNB75 cell growth in a cell viability assay.

KP-N-YS = assay type: functional, cell-based;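 also: cell viability assay measuring inhibition of cell line growth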
Description: SANGER: Inhibition of human KP-N-YS cell growth in a cell viability assay.

NCI-H1155 = assay type: functional, cell-based;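 also: cell growth inhibition measured by a viability assay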
Description: SANGER: Inhibition of human NCI-H1155 cell growth in a cell viability assay.

HCE-4 = assay type: functional, cell-based;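 also: cell viability assay measuring inhibition of growth in the human HCE-4 cell line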
Description: SANGER: Inhibition of human HCE-4 cell growth in a cell viability assay.

A388 = assay type: functional, cell-based;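 also: growth inhibition of human A388 cells, read out with a cell viability assay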
Description: SANGER: Inhibition of human A388 cell growth in a cell viability assay.

RPMI-8866 = assay type: functional, cell-based
Description: SANGER: Inhibition of human RPMI-8866 cell growth in a cell viability assay.

KINGS-1 = assay type: functional, cell-based;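 also: cell viability assay measuring suppression of KINGS-1 cell growth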
Description: SANGER: Inhibition of human KINGS-1 cell growth in a cell viability assay.

SW 962 = assay type: functional, cell-based;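 also: growth inhibition of human SW962 cells, read out by a cell viability assay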
Description: SANGER: Inhibition of human SW962 cell growth in a cell viability assay.

NCI-H1355 = assay type: functional, cell-based;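 also: growth inhibition of human NCI-H1355 cells, read out by a cell viability assay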
Description: SANGER: Inhibition of human NCI-H1355 cell growth in a cell viability assay.

SJSA-1 = assay type: functional, cell-based;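 also: growth inhibition of human SJSA-1 cells, read out through a cell viability measurement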
Description: SANGER: Inhibition of human SJSA-1 cell growth in a cell viability assay.

EW-24 = assay type: functional, cell-based;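 also: human EW-24 cancer cell line, growth inhibition read out via a cell viability assay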
Description: SANGER: Inhibition of human EW-24 cell growth in a cell viability assay.

NCI-H510A = assay type: functional, cell-based
Description: SANGER: Inhibition of human NCI-H510A cell growth in a cell viability assay.

MHH-PREB-1 = assay type: functional, cell-based
Description: SANGER: Inhibition of human MHH-PREB-1 cell growth in a cell viability assay.

EC-GI-10 = assay type: functional, cell-based
Description: SANGER: Inhibition of human EC-GI-10 cell growth in a cell viability assay.

CAS-1 = assay type: functional, cell-based
Description: SANGER: Inhibition of human CAS-1 cell growth in a cell viability assay.

NTERA-2-cl-D1 = assay type: functional, cell-based
Description: SANGER: Inhibition of human NTERA-S-cl-D1 cell growth in a cell viability assay.

HOP-62 = assay type: functional, cell-based
Description: SANGER: Inhibition of human HOP-62 cell growth in a cell viability assay.

Compound `Cc1[nH]c(/C=C2\C(=O)Nc3ccc(S(=O)(=O)Cc4c(Cl)cccc4Cl)cc32)c(C)c1C(=O)N1CCC[C@@H]1CN1CCCC1` [PHA-665752] has an IC50 (EOL1) of over 2000 nM, an IC50 (MN-60) of over 2000 nM and an IC50 (OS-RC-2) of over 2000 nM. The IC50 (SK-N-DZ) was over 2000 nM, the IC50 (TK-10) was over 2000 nM and the IC50 (NOMO-1) was over 2000 nM. For the same compound, the IC50 (A3-KAW) was over 2000 nM, the IC50 (SK-N-FI) was over 2000 nM and the IC50 (NCI-H209) was over 2000 nM. For the same compound, the IC50 (MS-1) was over 2000 nM, the IC50 (KARPAS-45) was over 2000 nM and the IC50 (DMS-79) was over 2000 nM. It also gave an IC50 (KURAMOCHI) of over 2000 nM, an IC50 (ML-2) of over 2000 nM and an IC50 (DMS-114) of over 2000 nM. The IC50 (SF-539) was over 2000 nM, the IC50 (D283 Med) was over 2000 nM and the IC50 (HuTu80) was over 2000 nM. For the same compound, the IC50 (KALS-1) was over 2000 nM, the IC50 (ES5) was over 2000 nM and the IC50 (MSTO-211H) was over 2000 nM. For the same compound, the IC50 (GOTO) was over 2000 nM, the IC50 (LB1047-RCC) was over 2000 nM and the IC50 (KNS-42) was over 2000 nM. For the same compound, the IC50 (NCI-H1648) was over 2000 nM, the IC50 (D-502MG) was over 2000 nM and the IC50 (HCC1187) was over 2000 nM. It also gave an IC50 (ONS-76) of over 2000 nM, an IC50 (SK-MEL-1) of over 2000 nM and an IC50 (CTB-1) of over 2000 nM. For the same compound, the IC50 (DU-4475) was over 2000 nM, the IC50 (SK-NEP-1) was over 2000 nM and the IC50 (C8166) was over 2000 nM. It also gave an IC50 (JVM-2) of over 2000 nM, an IC50 (Calu-6) of over 2000 nM and an IC50 (ES3) of over 2000 nM. It also gave an IC50 (SCC-15) of over 2000 nM, an IC50 (CTV-1) of over 2000 nM and an IC50 (GCIY) of over 2000 nM. The IC50 (JVM-3) was over 2000 nM, the IC50 (HCE-T) was over 2000 nM and the IC50 (KG-1) was over 2000 nM. The IC50 (OMC-1) was over 2000 nM, the IC50 (L-428) was over 2000 nM and the IC50 (KGN) was over 2000 nM. For the same compound, the IC50 (LS-1034) was over 2000 nM, the IC50 (KS-1) was over 2000 nM and the IC50 (KLE) was over 2000 nM. For the same compound, the IC50 (TE-11) was over 2000 nM, the IC50 (SNB-75) was over 2000 nM and the IC50 (KP-N-YS) was over 2000 nM. The IC50 (NCI-H1155) was over 2000 nM, the IC50 (HCE-4) was over 2000 nM and the IC50 (A388) was over 2000 nM. The IC50 (RPMI-8866) was over 2000 nM, the IC50 (KINGS-1) was 359 nM and the IC50 (SW 962) was over 2000 nM. For the same compound, the IC50 (NCI-H1355) was over 2000 nM, the IC50 (SJSA-1) was over 2000 nM and the IC50 (EW-24) was over 2000 nM. The IC50 (NCI-H510A) was over 2000 nM, the IC50 (MHH-PREB-1) was over 2000 nM and the IC50 (EC-GI-10) was over 2000 nM. For the same compound, the IC50 (CAS-1) was over 2000 nM, the IC50 (NTERA-2-cl-D1) was over 2000 nM and the IC50 (HOP-62) was over 2000 nM.
Work on `CC(C)=CC[C@@H](O)C1=CC(=O)c2c(O)ccc(O)c2C1=O` [SHIKONIN] yielded an IC50 (EOL1) of 509 nM, an IC50 (MN-60) of 348 nM and an IC50 (OS-RC-2) of 314 nM. For the same compound, the IC50 (SK-N-DZ) was 1800 nM, the IC50 (TK-10) was 1220 nM and the IC50 (NOMO-1) was 1160 nM. For the same compound, the IC50 (A3-KAW) was 2140 nM, the IC50 (SK-N-FI) was 7690 nM and the IC50 (NCI-H209) was 12300 nM. It also gave an IC50 (MS-1) of 1770 nM, an IC50 (KARPAS-45) of 9990 nM and an IC50 (DMS-79) of over 16000 nM. The IC50 (KURAMOCHI) was 3160 nM, the IC50 (ML-2) was 618 nM and the IC50 (DMS-114) was over 16000 nM. For the same compound, the IC50 (SF-539) was 857 nM, the IC50 (D283 Med) was 835 nM and the IC50 (HuTu80) was 370 nM. It also gave an IC50 (KALS-1) of 1320 nM, an IC50 (ES5) of 2630 nM and an IC50 (MSTO-211H) of over 16000 nM. It also gave an IC50 (GOTO) of 4590 nM, an IC50 (LB1047-RCC) of 302 nM and an IC50 (KNS-42) of over 16000 nM. The IC50 (NCI-H1648) was 11100 nM, the IC50 (D-502MG) was 4370 nM and the IC50 (HCC1187) was 1020 nM. The IC50 (ONS-76) was 358 nM, the IC50 (SK-MEL-1) was over 16000 nM and the IC50 (CTB-1) was 859 nM. For the same compound, the IC50 (DU-4475) was 180 nM, the IC50 (SK-NEP-1) was 1080 nM and the IC50 (C8166) was 408 nM. For the same compound, the IC50 (JVM-2) was 3870 nM, the IC50 (Calu-6) was 15700 nM and the IC50 (ES3) was 656 nM. The IC50 (SCC-15) was 650 nM, the IC50 (CTV-1) was over 16000 nM and the IC50 (GCIY) was 36 nM. For the same compound, the IC50 (JVM-3) was over 16000 nM, the IC50 (HCE-T) was 720 nM and the IC50 (KG-1) was 1600 nM. It also gave an IC50 (OMC-1) of 1750 nM, an IC50 (L-428) of 1210 nM and an IC50 (KGN) of 1310 nM. The IC50 (LS-1034) was 2750 nM, the IC50 (KS-1) was 41.5 nM and the IC50 (KLE) was 685 nM. The IC50 (TE-11) was 4010 nM, the IC50 (SNB-75) was 746 nM and the IC50 (KP-N-YS) was 352 nM. The IC50 (NCI-H1155) was over 16000 nM, the IC50 (HCE-4) was 389 nM and the IC50 (A388) was 867 nM. The IC50 (RPMI-8866) was 536 nM, the IC50 (KINGS-1) was 14100 nM and the IC50 (SW 962) was 568 nM. It also gave an IC50 (NCI-H1355) of 2820 nM, an IC50 (SJSA-1) of 5530 nM and an IC50 (EW-24) of 14600 nM. The IC50 (NCI-H510A) was over 16000 nM, the IC50 (MHH-PREB-1) was 252 nM and the IC50 (EC-GI-10) was over 16000 nM. For the same compound, the IC50 (CAS-1) was 462 nM, the IC50 (NTERA-2-cl-D1) was 144 nM and the IC50 (HOP-62) was 1160 nM.

Source: ChEMBL document CHEMBL1201861, “Genomics of Drug Sensitity in Cancer screening data, Wellcome Trust Sanger Institute”
